Test results as given in publication PMC7000521, “Hazard Characterization of Synthetic Cathinones Using Viability, Monoamine Reuptake, and Neuronal Activity Assays” (Frontiers in Neuroscience, 2020).
pIC50: −log10 of the molar value.

Experiments:
[1] = Estimated human brain concentrations and comparison with IC50 values; conditions: recreational human blood/serum/plasma concentration multiplied with BPF
Description: (§1) To correlate reported effect concentrations to expected concentrations in the human brain during recreational use a brain partitioning factor (BPF; […]) was applied, as actual human brain concentrations following recreational drug use are unknown. Expected concentrations in the human brain were estimated by multiplying recreational human blood/serum/plasma concentrations with the BPF. Human recreational blood, serum, or plasma levels were obtained from literature (driving under the influence or accidental non-fatal intoxications). The BPF was determined for each drug by dividing the brain concentration by the blood/serum/plasma concentration found in human post mortem reports, or animal studies (rat/mice) when human data were insufficient.
To identify the relevance of effects and potentially harmful drugs, effect concentrations (IC50 values) were related to the estimated human brain concentration during recreational use [(brain), Table 2]. By comparing these concentrations, the most relevant neurotoxic mechanisms of cathinones can be identified. […] Only 4-MEC and MDPV inhibited neuronal activity during acute exposure at concentrations within (MDPV) or close to (4-MEC) the estimated brain concentration.

[2] = recreational use (driving under the influence or accidental non-fatal intoxications); ref literature; cited from earlier work
[3] = biological target: T1, hDAT (Homo sapiens, UniProt Q01959); test: Monoamine uptake assay (fluorescent substrate), hDAT; format: cell-based
T1 construct: expressed in transfected cells
T1 sequence (Q01959 whole entry): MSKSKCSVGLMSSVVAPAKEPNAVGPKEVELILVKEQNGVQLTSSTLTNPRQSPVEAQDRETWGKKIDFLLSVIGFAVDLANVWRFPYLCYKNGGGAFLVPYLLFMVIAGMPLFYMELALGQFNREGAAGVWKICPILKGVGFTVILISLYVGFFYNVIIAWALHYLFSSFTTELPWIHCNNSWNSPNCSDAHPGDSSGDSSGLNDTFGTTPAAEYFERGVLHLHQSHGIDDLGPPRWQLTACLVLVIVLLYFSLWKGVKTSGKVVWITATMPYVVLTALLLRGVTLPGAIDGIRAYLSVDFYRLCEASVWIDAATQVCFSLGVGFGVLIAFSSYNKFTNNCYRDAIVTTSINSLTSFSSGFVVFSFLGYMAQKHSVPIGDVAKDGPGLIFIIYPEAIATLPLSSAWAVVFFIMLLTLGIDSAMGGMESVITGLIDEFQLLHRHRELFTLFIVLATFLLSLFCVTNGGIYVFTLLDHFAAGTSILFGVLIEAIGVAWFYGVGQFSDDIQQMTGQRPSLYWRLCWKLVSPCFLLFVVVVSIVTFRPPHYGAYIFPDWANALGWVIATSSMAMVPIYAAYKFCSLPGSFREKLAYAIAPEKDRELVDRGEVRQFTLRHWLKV
Procedure: Human embryonic kidney (HEK) 293 cells stably expressing human DAT, NET, or SERT (kindly provided by Dr. Hoener from F. Hoffmann-La Roche Ltd., Basel, Switzerland) were cultured as described in [Zwartsen et al. (2017)].
Uptake activity of hNET, hDAT, and hSERT was measured using the Neurotransmitter Transporter Uptake Assay Kit from MDS Analytical Technologies (Sunnyvale, CA, United States) as described in detail previously ([Zwartsen et al., 2017]). The kit contained a mixture consisting of a fluorescent substrate, which resembles the biogenic amine neurotransmitters, and a masking dye that extinguishes extracellular fluorescence. Uptake of the fluorescent substrate, a measure of neurotransmitter transporter function, increases intracellular fluorescence, while extracellular fluorescence is blocked by the masking dye ([Jorgensen et al., 2008]). The mixture was dissolved in Hank’s Balanced Salt Solution (1×) (HBSS) with 20 mM HEPES, and kept up to 1 week at −20°C.
On day 0, HEK 293 cells were seeded (60,000 cells/well) in clear-bottom black-walled 96-well plates coated with poly-L-lysine (PLL, 50 mg/L). On day 1, cells were pre-incubated with the fluorescent substrate mixture (95 μL/well, comprising of the fluorescent substrate and the extracellular masking dye, dissolved in HBSS) for 12 min (t = −12 to t = 0). During incubation, intracellular fluorescence was measured every 3 min. […] Stock solutions and dilutions were freshly prepared in HBSS (1×) at the day of usage. Effects of 3-MMC, 4-MMC, 4-MEC, methylone, pentedrone, MDPV, 3-MMCinternet, and 4-MECinternet were measured at final concentrations of 0.03–300/1000 μM. Fluorescence was measured with a microplate reader (Tecan Infinite M200 microplate; Tecan Trading Männedorf, Switzerland) at 37°C at 430/515 nm excitation/emission wavelength. For more experimental detail see [Zwartsen et al. (2017)].
Data from the monoamine uptake assay were analyzed as described by [Zwartsen et al. (2017)], with minor modifications. Data for α-PVP were reanalyzed from [Zwartsen et al. (2017)]. In short, the fluorescence of each well was background corrected and uptake was determined per well by calculating the change in fluorescence (ΔFU) at 12 min after drug exposure (t = 12) compared to the fluorescence at the start of exposure (t = 0), as a percentage of the fluorescence at the start of exposure (%ΔFU = ((FUt = 12−FUt = 0)/FUt = 0)∗100%; see [Zwartsen et al., 2017]). Plate-matched control values for each compound (e.g., methylone) above or below two times the standard deviation of the average normalized control value were considered outliers and were removed from analysis (4.8%). Thereafter, uptake in drug-exposed wells was expressed as a percentage of control wells on the same plate and all uptake values were scaled between 0 and 100%. Outliers (>mean ± 2×SD) in exposed groups were removed (2.7%) and uptake (% compared to control) was expressed as mean ± SEM of nwells from Nplates.
Concentration–response curves were made for transporter, MEA, and cell viability assays. To calculate IC50 values, a four-parameter logistic curve with a variable slope was used (Y = Bottom + (Top−Bottom)/(1 + 10∧((LogIC50 − X) ^∗ HillSlo pe))) (GraphPad Prism, version 7.04). When applicable, significance between concentrations and controls (for MEA) and different IC50 values [between different transporters (DAT/NET/SERT), MEA parameters (MSR/MBR/MNBR), exposure settings (acute/prolonged/recovery), and drug grade (pharmaceutical/internet)] were determined using unpaired t-tests (two values) or one-way ANOVA’s followed by a post hoc Dunnet’s test (>2 values). All statistical tests were performed using GraphPad Prism. For recovery of neuronal activity, IC50 values and 95% confidence intervals could not always be determined and are reported as higher than the highest concentration tested (e.g., >1000 μM). […]

[4] = Brain partitioning factor (BPF); conditions: brain concentration divided by blood/serum/plasma concentration from human post mortem reports or animal studies (rat/mice)
Description: as §1

SMILES	Estimated human (brain) concentration [1] [µM]	Human (serum/blood/plasma) concentration [2]	pIC50 [3]	Brain partitioning factor (BPF) [4]
CNC(C)C(=O)c1cccc(C)c1 (stereo not shown) [3-MMC, 2-(methylamino)-1-(3-methylphenyl) propan-1-one]	0.005 to 9.0	0.005–9.0^A,b,^c μM	5.60	
CCNC(C)C(=O)c1ccc(C)cc1 (stereo not shown) [4-MEC, 2-(ethylamino)-1-(4-methylphenyl) propan-1-one]	0.2 to 29	0.1–4.7^a^,d μM	5.80	1.5–6.2^4
CNC(C)C(=O)c1ccc(C)cc1 (stereo not shown) [4-MMC, 2-(methylamino)-1-(4-methylphenyl) propan-1-one]	0.04 to 37	0.05–6.0^a^,d,E,f μM	5.85	0.7–6.2^1,^–2,^3
CCCC(C(=O)c1ccc2c(c1)OCO2)N1CCCC1 (stereo not shown) [MDPV, 1-(1,3-benzodioxol-5-yl)-2-pyrro lidin-1-ylpentan-1-one]	0.02 to 30	0.02–6.9^d,L,M,n μM	7.15	0.8–4.4^4,11,12
CCCC(NC)C(=O)c1ccccc1 (stereo not shown) [Pentedrone, 2-(methylamino)-1-phenyl pentan-1-one]	0.06 to 3.0	0.04–1.9^a^,d,I μM	6.40	1.6^8
